Patent publication US20250345370A1, “MICROBIAL LIBERATION OF N-METHYLSEROTONIN FROM ORANGE FIBER” (Washington University, priority 2022, published 2025)
Like-named read-outs stand apart in the source and are kept apart here.

Assays:
[1] = In vitro screening of bacterial strains for N-methylserotonin releasing activity from orange fiber; format: cell-based, human gut bacterial strains; settings: for N-methylserotonin released, MEGA Medium 2.0 72 hrs / N-methylserotonin released, TYG medium 8 hrs / N-methylserotonin released, TYG medium 24 hrs / N-methylserotonin released, TYG medium 48 hrs / N-methylserotonin released, TYG medium 72 hrs / N-methylserotonin released, Wilkins-Chalgren 72 hrs: 5 mg/ml orange fiber, normalized to 10^6 microbes, n=3
Procedure: In vitro screening of bacterial strains for N-methylserotonin releasing activity. A given bacterial strain was grown in monoculture at 37° C. in TYG medium in an anaerobic chamber (atmosphere; 75% N2, 20% CO2 and 5% H2) to stationary phase. An aliquot was then added to 10 mL of fresh TYG medium with or without 50 mg of orange fiber that had been sterilized by gamma irradiation (30-50 KGy); the mixture was incubated under anaerobic conditions without shaking for 72 hours. A 200 μL aliquot was then removed for targeted LC-QqQ-MS measurement of N-methylserotonin levels; another aliquot was used to define the number of colony-forming units so that levels of the analyte were expressed per 10^6 cells. An identical protocol was used to compare the amount of N-methylserotonin released when two other rich media, MEGA medium 2.0 and Wilkins-Chalgren anaerobe broth (Thermo-Fisher), were used in lieu of TYG. All incubations were performed in triplicate for each condition. […]
Bacterial strains capable of mining of N-methylserotonin from orange fiber in vitro. Given that detection of N-methylserotonin was dependent on colonization with the bacterial consortium and consumption of orange fiber, it was next investigated which community members were responsible for its appearance. Each of the 14 community members was grown in monoculture to stationary phase in TYG medium; 10^5 cells of each organism were incubated in 10 mL of a 5 mg/mL suspension of orange fiber for 8, 24, 48, 72 and 168 hours. N-methylserotonin was quantified using targeted LC-QqQ-MS. […] At this time point, Bacteroides ovatus strain TSDC 17.2 and a strain of Parabacteroides distasonis yielded similar quantities of product (29±1 and 24±2 ng N-methylserotonin/10^6 cells, respectively). In contrast, the 12 other strains yielded<1.5 ng/10^6 cells—an amount that was not appreciably higher than background levels (triplicate incubations/organism; FIG. 1C). […]

[2] = Control experiments of bacterial N-methylserotonin release (heat-killed cells, conditioned media, lysates); format: cell-based, human gut bacterial strains
Procedure: Experiments seeking to test the necessity of having live bacteria to extract N-methylserotonin were carried out by first incubating monocultures of B. ovatus, B. finegoldii, […] conditions to stationary phase. The stationary phase culture was then treated at 70° C. for 1 hour. […]
Experiments using conditioned media were carried out by taking monocultures of B. ovatus, B. finegoldii, P. distasonis, […], centrifuging the culture for […]
Experiments using bacterial lysates were carried out by bead-beating of bacterial cells, collected by centrifugation from 10 mL stationary phase TYG cultures for 4 minutes at room temperature; 500 μL of the […] To ensure sterility in these experiments, aliquots of the heat-treated cells, centrifuged conditioned media, or bacterial lysate were cultured in TYG medium for 7 days and subsequently plated on TYG-agar; the results confirmed the absence of colony forming units. Assays were performed in triplicate for each experimental condition.
These experiments indicate that mining requires intact viable cells.

[3] = Release of N-methylserotonin from orange fiber by commercially available glycoside hydrolase preparations; format: biochemical
Procedure: Enzymatic screening of citrus & plant samples. All enzymatic assays are carried out using a total volume of 10 ml in water, 50 mg of plant fiber material tested and 700 active units of the same cellulase enzyme mixture (Sigma) as described herein. Samples were processed based on their condition, divided as follows. Citrus fibers sourced from various citrus types, described in Table S9 as “Ground,” are added directly to the enzymatic assay, while citrus fibers described as either “Granule” or “Whole” are first manually pulverized into a fine powder via mortar and pestle. The commercially available fiber source is classified as “Ground” if it was already processed into fine powder, or otherwise small enough granules in which individual pieces cannot be manually picked up via forceps. The commercially available fiber source is classified as “Granule” or “Whole” if individual fragments or pieces of the fiber is readily discernable, where “Granule” are applied to visibly uniform samples and “Whole” applied to all other samples. […]
Identifying genes involved in release of N-methylserotonin from orange fiber. […] When orange fiber (50 mg) was subjected to repeated rounds of extraction with methanol, small quantities of N-methylserotonin were released after each round (31 ng after two rounds; 171 ng in total after 15 rounds; Table S4F). […]

rat hepatocytes = settings: cited from earlier work
[4] = Human studies with pea and orange fiber snack prototypes: fecal N-methylserotonin and serotonin levels; format: in vivo; settings: in vivo
Procedure: Human studies with pea and orange fiber snack prototypes. Two separate open-label, single group assignment studies were performed involving members of the Missouri Adolescent Female Twin Study (MOAFTS) cohort who were age 31-45 years at the time of enrollment. The first study with the pea fiber snack was performed between April and August 2017, while the second study with the orange fiber snack was conducted between August and December 2017. All participants provided written informed consent and the studies were approved by the Washington University Institutional Review Board (IRB ID #201611122). (ClinicalTrials.gov NCT03078283).
The design of the two studies were identical except for the fiber snack supplement used and the number of participants in each study. Individuals who were pregnant or trying to get pregnant, had inflammatory bowel disease, gastrointestinal cancer, hepatitis, HIV, renal failure, or allergies to dairy, eggs, fish, crustacean shellfish, tree nuts, sesame seeds, peanuts, wheat, gluten, soybeans, celery, or mustard were excluded from the study. In Study 1, four twin pairs were concordant for obesity (BMI>30 kg/m2) while five pairs were discordant with one member being obese and the other non-obese (n=18 participants, […] (mean±SD); Table S8B). Study 2 involved 24 participants: 12 dizygotic twin pairs [37±2.9 years (mean±SD)], nine of whom had participated in the pea fiber study; for these nine pairs, the interval between cessation of pea fiber snack consumption and initiation of orange fiber consumption ranged from 50 to 106 days [84+26 days (mean±SD)]. Participants consumed their normal, unrestricted diet for the first two weeks of the study (pre-intervention phase). At the beginning of week three, they supplemented their diets with one 35 g fiber snack serving a day for one week, then two 35 g snack servings a day the following week, and thereafter, three 35 g snacks per day for four weeks (weeks 5-8) at breakfast, lunch and dinner. No attempt was made to adjust the diets of participants other than supplementation with the fiber snack. Snack prototypes were manufactured by Mondeldz International, Inc. (see Table S8A for their composition), which participants received in weekly shipments from the study center. The pea fiber snacks were in the form of rotary biscuits (6.7 g total fiber/35 g snack) or extruded bars (8.1 g fiber/35 g snack) with participants having the option to alternate between them. The orange fiber snacks were all in the form of extruded bars (10.2 g total fiber/35 g snack). Compliance was monitored throughout by the study coordinator through weekly phone calls. The primary outcomes for each study were the effects of the respective prototypes on gut microbial community structure and function.
Fecal samples were collected by participants in small medically approved collection containers. Each fecal sample was frozen immediately at −20° C. and temporarily stored in dedicated freezers provided to participants at the beginning of the study. Within 12-48 hours after collection, all samples were shipped, via overnight delivery, in an insulated container containing frozen gel packs, to a biospecimen repository located in Washington University in St. Louis and overseen by one of the authors (A.C.H.). Once received, samples were stored at −80° C. until processing for LC-QqQ-MS analysis of N-methylserotonin levels and culture-independent characterization of ASV and CAZyme gene abundances.
Measurement of fecal N-methylserotonin levels—Each fecal sample was homogenized with a porcelain mortar (4 L) and pestle while submerged in liquid nitrogen; multiple 500 mg aliquots of the pulverized frozen material were stored at −80° C. N-methylserotonin was quantified using the same protocol that was employed for mouse fecal samples (as described herein elsewhere).
N-methylserotonin levels and microbiome CAZyme gene abundances in humans consuming fiber snack prototypes. […]

[5] = for 2-methylserotonin remaining: 200 ng spike-in

Parabacteroides distasonis
N-methylserotonin released, MEGA Medium 2.0 72 hrs [1]: 24.8 ± 2.1 ng | N-methylserotonin released, TYG medium 8 hrs [1]: 0.3 ± 0.1 ng | N-methylserotonin released, TYG medium 24 hrs [1]: 1.0 ± 0.1 ng | N-methylserotonin released, TYG medium 48 hrs [1]: 7.5 ± 0.7 ng | N-methylserotonin released, TYG medium 72 hrs [1]: 24.3 ± 2.4 ng | N-methylserotonin released, Wilkins-Chalgren 72 hrs [1]: 22.1 ± 0.7 ng | N-methylserotonin yielded at the 72-hour time point ([1]; TYG, 5 mg/mL orange fiber, triplicate): 24±2 ng N-methylserotonin/10^6 cells | N-methylserotonin levels, Cellular extract ([2]; Mega 2.0 (+orange fiber)): 0.3 ± 0.1 ng | N-methylserotonin levels, Conditioned media ([2]; Mega 2.0 (+orange fiber)): 0.3 ± 0.1 ng | N-methylserotonin levels, Heat inactivated ([2]; Mega 2.0 (+orange fiber)): 0.4 ± 0.1 ng | N-methylserotonin levels, Cellular extract ([2]; Mega 2.0, no orange fiber): ND (ND (not detected)=N-methylserotonin levels below 0.02 ng) | N-methylserotonin levels, Conditioned media ([2]; Mega 2.0, no orange fiber): ND (ND (not detected)=N-methylserotonin levels below 0.02 ng) | N-methylserotonin levels, Heat inactivated ([2]; Mega 2.0, no orange fiber): ND (ND (not detected)=N-methylserotonin levels below 0.02 ng) | N-methylserotonin levels, Cellular extract ([2]; TYG (+orange fiber)): 0.2 ± 0.1 ng | N-methylserotonin levels, Conditioned media ([2]; TYG (+orange fiber)): 0.3 ± 0.1 ng | N-methylserotonin levels, Heat inactivated ([2]; TYG (+orange fiber)): 0.3 ± 0.1 ng | N-methylserotonin levels, Cellular extract ([2]; TYG, no orange fiber): ND (ND (not detected)=N-methylserotonin levels below 0.02 ng) | N-methylserotonin levels, Conditioned media ([2]; TYG, no orange fiber): ND (ND (not detected)=N-methylserotonin levels below 0.02 ng) | N-methylserotonin levels, Heat inactivated ([2]; TYG, no orange fiber): ND (ND (not detected)=N-methylserotonin levels below 0.02 ng) | N-methylserotonin levels with heat-killed cells, lysates or conditioned medium ([2]; fresh TYG with orange fiber, 72 hours): failed to yield levels of N-methylserotonin above background

Cellulase
N-methylserotonin levels at 72 h ([3]; 50 mg orange fiber incubated with enzyme): 2727.9 ± 25.5 ng | total yield of N-methylserotonin ([3]; orange fiber incubated with enzyme preparation): 2728±26 ng/50 mg orange fiber

Bacteroides cellulosilyticus
N-methylserotonin released, MEGA Medium 2.0 72 hrs [1]: 1.0 ± 0.2 ng | N-methylserotonin released, TYG medium 8 hrs [1]: 0.3 ± 0.1 ng | N-methylserotonin released, TYG medium 24 hrs [1]: 0.3 ± 0.1 ng | N-methylserotonin released, TYG medium 48 hrs [1]: 0.6 ± 0.1 ng | N-methylserotonin released, TYG medium 72 hrs [1]: 0.9 ± 0.2 ng | N-methylserotonin released, Wilkins-Chalgren 72 hrs [1]: 1 ± 0.2 ng

CC(N)Cc1c[nH]c2ccc(O)cc12 (stereo not drawn) [alpha-methylserotonin]
glycogen synthesis (rat hepatocytes): able to increase glycogen synthesis

NCCc1c[nH]c2ccc(O)cc12 [serotonin]
fecal serotonin levels ([4]; female, human): 7 ± 5.7 µM | fecal serotonin levels as % of that of N-methylserotonin [4]: 0-8.6% | glycogen synthesis (rat hepatocytes): decreases glycogen synthesis

Cc1[nH]c2ccc(O)cc2c1CCN [2-methylserotonin, reference compound]
2-methylserotonin remaining ([5]; Extraction 1): 190 ng | 2-methylserotonin remaining ([5]; Extraction 2): 10 ng | 2-methylserotonin remaining ([5]; Extraction 3): 0 ng | 2-methylserotonin remaining ([5]; Extraction 4): 0 ng | 2-methylserotonin remaining ([5]; Extraction 5): 0 ng | 2-methylserotonin remaining ([5]; Extraction 6): 0 ng | 2-methylserotonin remaining ([5]; Extraction 7): 0 ng | 2-methylserotonin remaining ([5]; Extraction 8): 0 ng | 2-methylserotonin remaining ([5]; Extraction 9): 0 ng | 2-methylserotonin remaining ([5]; Extraction 10): 0 ng | 2-methylserotonin remaining ([5]; Extraction 11): 0 ng | 2-methylserotonin remaining ([5]; Extraction 12): 0 ng | 2-methylserotonin remaining ([5]; Extraction 13): 0 ng | 2-methylserotonin remaining ([5]; Extraction 14): 0 ng | 2-methylserotonin remaining ([5]; Extraction 15): 0 ng | 2-methylserotonin removed by the first cycle of extraction ([5]; methanol, spike-in added to orange fiber): 95%
